Assay results as given in patent EP0185020B1, “NI[…] PREPARATION THEREOF AND UTILIZATION THEREOF IN ANTICANCEROUS CHEMIOTHERAPY” (CENTRE NATIONAL DE LA RECHERCHE SCIENTIFIQUE (CNRS), priority 1984, dated 1985).

Experiments:
[1] = tested on: Carcinome du côlon (côlon 26) (implanté en sous-cutané); conditions: Carcinome du côlon (côlon 26) s.c.; 30 mg/kg I.P., jours 1,5,9; cited from earlier work
[2] = tested on: M 555 ovarienne (implanté en sous-cutané); conditions: M 555 ovarienne s.c.; 30 mg/kg I.P., jours 1,5,9; cited from earlier work
[3] = tested on: Mélano-carcinome B 16 (implanté en sous-cutané); conditions: Mélano-carcinome B 16 s.c.; 30 mg/kg I.P., jours 1,5,9; cited from earlier work
[4] = tested on: Carcinome pulmonaire de Lewis (implanté en sous-cutané); conditions: 30 mg/kg I.P., jours 1,5,9; cited from earlier work
[5] = tested on: Fibrosarcome I.C.I.G. C1 (implanté en sous-cutané); set-up: key: N.S.: Non significatif; ∞: 50% en plus des animaux traités sont guéris; conditions: 30 mg/kg I.P., jours 1,5,9; cited from earlier work
[6] = tested on: Leucémie L 1210 (greffée par voie i.c.); conditions: Leucémie L 1210 i.c.; 30 mg/kg I.P., jours 1,5,9; cited from earlier work
[7] = Solubility in solvents allowing intravenous administration; type: physicochemical; conditions: solvants autorisant l'administration par voie intraveineuse
From the text: Ont été administrés par voie intraveineuse (i.v.) dans la veine caudale, les mélanges A, A2 et B, B2 dans les proportions et aux doses utilisées dans a). La comparaison avec la CNCC pour cette voie d'administration est impossible en raison de l'insolubilité de ce composé dans les solvants autorisant l'administration par voie intraveineuse. Les résultats sont présentés sur le tableau III.

[8] = tested on: Adénocarcinome mammaire TM2 (implanté en sous-cutané); conditions: 30 mg/kg I.P., jours 1,5,9; cited from earlier work
[9] = tested on: Gliome 26 (implanté en sous-cutané); conditions: Gliome 26 s.c.; 30 mg/kg I.P., jours 1,5,9; cited from earlier work
[10] = tested on: leucémie L 1210 greffée i.p.; test: Antitumour activity on L1210 leukaemia grafted i.p. in mice, mixtures A1 A2 and B1 B2 (INSERM Unit 71, Example 12); type: in vivo, souris B6D2F1/IFFA CREDO; conditions: J1, J5, J9
From the text: Au jour J: 0, des souris mâles B6D2F1 âgées de trois mois reçoivent par voie intrapéritonéale 10^5 cellules de la souche leucémique L 1210. Les animaux sont répartis en lots de 8 à 10 animaux pour les groupes témoins et de 6 à 8 animaux pour les groupes traités. Aux jours J : 1, J : 5, J : 9, les animaux reçoivent par voie intrapéritonéale ou intraveineuse le traitement à différentes doses. La CNCC est administrée en suspension dans l'huile d'olive. Les produits selon l'invention sont administrés dans du sérum physiologique. La mortalité est enregistrée tous les jours. La médiane de survie des animaux traités et des animaux témoins a été déterminée. Les résultats sont considérés comme positifs lorsque l'index I = [formula] est supérieur à 125.
La valeur ∞ signifie que 50 à 100% des animaux sont survivants au jour J : 90.
L'activité cytostatique sur la leucémie L 1210 des produits selon l'invention a été évaluée chez des souris B6D2F1/IFFA CREDO d'après le protocole précédemment décrit.
Ont été administrés par voie intrapéritonéale (i.p.) soit le mélange A, A2 dans les proportions suivantes A, (70%) et A2 (30%), soit le mélange B, B2 dans les mêmes proportions, soit la CNCC aux doses suivantes: 10 mg/kg, 20 mg/kg, 30 mg/kg, 40 mg/kg et 50 mg/kg. Les résultats sont présentés sur le tableau Il et appellent les commentaires suivants: • - très bonne efficacité du mélange A, A2 aux doses de 20 mg/kg, 30 mg/kg et 40 mg/kg et du mélange B, B2 aux doses de 20 mg/kg, 30 mg/kg, 40 mg/kg et 50 mg/kg. […] De plus, le nombre de survivants à 90 jours est plus grand chez les animaux ayant reçu les produits selon l'invention par rapport aux animaux ayant reçu la CNCC. […]

In the case of `O=NN(CCCl)C(=O)NCCSSCCNC(=O)N(CCCl)N=O` [CNCC], the “Augmentation de la durée de survie (I.L.S.: T/C×100)” value (shortened to “Augmentation de la durée de survie”) [1] is given as “∞ (50% en plus des animaux traités sont guéris)”, the “Augmentation de la durée de survie” value [2] is given as over 254 and the “Augmentation de la durée de survie” value [3] is given as 200. The “Augmentation de la durée de survie” value [4] was “∞ (50% en plus des animaux traités sont guéris)”, the “Augmentation de la durée de survie” value [5] was “N.S” and the “Augmentation de la durée de survie” value [6] was “∞ (50% en plus des animaux traités sont guéris)”. For the same compound, the “solubilité, in words” value [7] was “insolubilité”, the “Augmentation de la durée de survie” value [8] was 185 and the “Augmentation de la durée de survie” value [9] was 200. The “Nombre de survivants à 90 jours” value ([10]; 10 mg/kg) was 0/6, the “T/C × 100” value ([10]; 10 mg/kg) was 250 and the “Nombre de survivants à 90 jours” value ([10]; 20 mg/kg) was 6/6. For the same compound, the “T/C × 100” value ([10]; 20 mg/kg) was “∞ (50 à 100% des animaux survivants à 90 jours)”, the “Nombre de survivants à 90 jours” value ([10]; 30 mg/kg) was 6/6 and the “T/C × 100” value ([10]; 30 mg/kg) was “∞ (50 à 100% des animaux survivants à 90 jours)”. The “Nombre de survivants à 90 jours” value ([10]; 40 mg/kg) was 3/6, the “T/C × 100” value ([10]; 40 mg/kg) was “∞ (50 à 100% des animaux survivants à 90 jours)” and the “Nombre de survivants à 90 jours” value ([10]; 50 mg/kg) was 0/6. For the same compound, the “T/C × 100” value ([10]; 50 mg/kg) was 125.
